Among the data in patent US20230000842A1, “METHODS OF TREATING CARTILAGE DISORDERS THROUGH INHIBITION OF CLK AND DYRK” (SAMUMED, LLC, priority 2019, published 2023) are EC50 and Emax values, retold here.

A value given as a limit tells only on which side of the number the result lay.

The target of experiment [1] is CLK2 kinase (Homo sapiens, UniProt P49760). Nature of the experiment: CLK2 kinase activity assay (Z-lyte FRET).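 Further: FRET read-out as coumarin to fluorescein emission ratio, unphosphorylated peptide as 0% and phosphorylated peptide as 100% controls, duplicate reactions, non-linear regression fit of dose-response curves.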 The experiment is classed as biochemical. The conditions noted are these: Z-lyte Ser/Thr 6 peptide, 60 μM ATP, 1 h at room temperature.
Chain of CLK2 kinase (P49760 whole entry): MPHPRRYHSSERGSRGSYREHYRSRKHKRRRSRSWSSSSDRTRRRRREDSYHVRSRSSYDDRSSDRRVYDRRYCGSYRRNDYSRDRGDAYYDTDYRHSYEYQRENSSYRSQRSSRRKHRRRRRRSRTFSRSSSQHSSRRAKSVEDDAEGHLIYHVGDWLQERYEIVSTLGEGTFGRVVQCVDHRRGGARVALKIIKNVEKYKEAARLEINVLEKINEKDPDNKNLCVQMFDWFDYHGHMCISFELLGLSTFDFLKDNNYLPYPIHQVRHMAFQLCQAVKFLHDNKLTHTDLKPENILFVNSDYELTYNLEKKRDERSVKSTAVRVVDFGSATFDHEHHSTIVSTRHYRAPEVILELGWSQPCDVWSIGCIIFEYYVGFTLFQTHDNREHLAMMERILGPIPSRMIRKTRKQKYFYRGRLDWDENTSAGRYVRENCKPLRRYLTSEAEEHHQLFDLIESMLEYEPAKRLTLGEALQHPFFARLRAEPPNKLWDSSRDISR
For experiment [2], the target named is CLK3 kinase (Homo sapiens, UniProt P49761). Nature of the experiment: CLK3 kinase activity assay (Z-lyte FRET).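 Further: kinase activity read as coumarin/fluorescein emission ratio by FRET, unphosphorylated peptide as 0% and phosphorylated peptide as 100% control, values from non-linear regression of dose-response curves.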 The experiment is classed as biochemical. The settings on record: Z-lyte Ser/Thr 18 peptide, 156 μM ATP, 1 h at room temperature.
Chain of CLK3 kinase (P49761 whole entry): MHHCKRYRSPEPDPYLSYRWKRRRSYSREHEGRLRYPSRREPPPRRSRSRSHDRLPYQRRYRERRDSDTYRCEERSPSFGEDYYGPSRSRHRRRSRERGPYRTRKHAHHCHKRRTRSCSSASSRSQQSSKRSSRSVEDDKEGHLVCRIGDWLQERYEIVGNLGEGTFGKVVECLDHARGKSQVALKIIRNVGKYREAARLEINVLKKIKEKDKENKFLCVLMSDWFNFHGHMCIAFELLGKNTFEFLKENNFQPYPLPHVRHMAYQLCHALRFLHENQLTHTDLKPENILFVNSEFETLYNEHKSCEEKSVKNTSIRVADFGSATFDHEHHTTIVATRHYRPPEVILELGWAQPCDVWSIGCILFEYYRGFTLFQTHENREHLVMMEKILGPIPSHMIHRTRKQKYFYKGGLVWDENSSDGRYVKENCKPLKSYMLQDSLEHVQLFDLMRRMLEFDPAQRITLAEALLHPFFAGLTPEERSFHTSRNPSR
Experiment [3] concerns primary human mesenchymal stem cells (hMSCs). Nature of the experiment: Chondrogenesis screening using primary human mesenchymal stem cells. The experiment is classed as cell-based. The settings on record: Homo sapiens, Mesenchymal stem cells, hMSC chondrogenesis; for EC50: concentration required to induce 50% levels of chondrogenesis with TGF-β3 as positive control, read-out: Conc (nM) of 50% TGF-β3 activity; for Emax: maximum activity relative to TGF-β3 (10 ng/mL) positive control, read-out: Max. Activity as % TGF-β3 activity. From the text: Representative compounds were screened using primary human mesenchymal stem cells (hMSCs) to determine their ability to induce chondrogenesis (process by which cartilage is developed).
Human Mesenchymal Stem Cell Culture: Primary human mesenchymal stem cells (hMSCs) were purchased from Lonza (Walkersville, Md.) and expanded in Mesenchymal Stem Cell Growth Media (Lonza). Cells between passage 3 and 6 were used for the experiments.
Area of nodules in each well was normalized to the average of 3 DMSO treated wells on the same plate using Excel (Microsoft Inc.). The normalized averages (fold change over DMSO) of 2 or 3 replicate wells for each compound concentration were calculated. Due to solubility limitations of some of the compounds, curve fitting was incomplete leading to inaccurate EC50 determinations.
Using TGF-β3 as a positive control, the concentration of representative compounds required to induce 50% levels of chondrogenesis is reported. In addition, the maximum activity of each compound and the respective dose that each compound reached maximum chondrogenesis activity is reported.

The test system of experiment [4] is Wnt pathway activity (SW480 colon carcinoma cells stably expressing the Sp5-Luc reporter). As to the kind of experiment: Wnt pathway activity screening assay (Sp5-Luc reporter gene assay). The conditions noted are these: Homo sapiens, SW480, Table 4; SW480 cells stably expressing Sp5-Luc reporter, 10-point dose-response from 10 μM, 36 to 48 hours.

Regarding `CN1CCN(c2ccnc3[nH]c(-c4n[nH]c5ccc(-c6cncc(NC(=O)c7ccccc7)c6)nc45)cc23)CC1` [compound 488], the EC50 in experiment [1] was found to be 3 nM; in experiment [2], 2530 nM; in experiment [3], 10 nM; in experiment [4], 6100 nM. Moreover, the Emax in experiment [3] was found to be 61.8%.
As for `Cc1ccncc1-c1ccc2[nH]nc(-c3cc4c(-c5cccnc5)cncc4[nH]3)c2n1` [compound 346], the EC50 in experiment [1] is 4 nM; in experiment [2], 133 nM; in experiment [3] it was 10 nM; in experiment [4], over 10000 nM. In addition, in experiment [3], the Emax was 149%.
Regarding `CCCC(=O)Nc1cncc(-c2cnc3[nH]nc(-c4nc5c(-c6ccccc6F)cncc5[nH]4)c3c2)c1` [compound 172], the EC50 in experiment [1] was determined as 7 nM; in experiment [2], 117 nM; in experiment [4], 8 nM. Also, in experiment [3], the Emax was 82.8%.
For `Cc1ccncc1-c1cnc2[nH]nc(-c3cc4c(-c5cccnc5)cncc4[nH]3)c2c1` [compound 345], the EC50 in experiment [1] came out at 3 nM; in experiment [2], 107 nM; in experiment [4] it was 2250 nM. Also, the Emax in experiment [3] came to 17.4%.
Take `c1cncc(-c2cc3c(-c4nc5c(-c6cccnc6)nccc5[nH]4)n[nH]c3cn2)c1` [compound 182]: the EC50 in experiment [1] worked out at 11 nM; in experiment [2], 9840 nM; in experiment [4], 28.3 nM. The Emax in experiment [3] is 44.5%.
Consider `CC(C)Nc1cncc(-c2ccc3[nH]nc(-c4nc5c(-c6ccccc6F)cncc5[nH]4)c3c2)c1` [compound 177], for which the figures for the EC50 in experiment [1], in experiment [2] and in experiment [4] were 6 nM, 209 nM and 1 nM, respectively. Further, the Emax in experiment [3] was found to be 56.8%.
Take `Cc1ccncc1-c1cc2c(-c3nc4c(-c5cc(F)cc(CNS(C)(=O)=O)c5)ccnc4[nH]3)n[nH]c2cn1` [compound 291]: the EC50 in experiment [1] came out at 32 nM; in experiment [2], 54 nM; in experiment [3], 30 nM; in experiment [4], 109 nM. In addition, the Emax in experiment [3] worked out at 70%.
The corresponding values for `c1csc(-c2ccnc3[nH]c(-c4n[nH]c5ccc(-c6cncc(OC7CCNCC7)c6)nc45)cc23)c1` [compound 510] are 16 nM, 1870 nM, 300 nM, 3550 nM and 51.4%.
For `CCCCC(=O)Nc1cncc(-c2ccc3[nH]nc(-c4cc5cccnc5[nH]4)c3c2)c1` [compound 420], the EC50 stood at 11 nM in experiment [1], 344 nM in experiment [2] and 324 nM in experiment [4]. The Emax in experiment [3] worked out at 34.1%.
With `O=C(CC1CCNCC1)Nc1cncc(-c2cc3c(-c4nc5c(-c6cccc(F)c6)ccnc5[nH]4)n[nH]c3cn2)c1` [compound 128], the EC50 in experiment [1] is 2 nM; in experiment [2] it was 28 nM; in experiment [4] it was 345 nM. Also, the Emax in experiment [3] was 54.7%.
`c1cncc(-c2ccnc3[nH]c(-c4n[nH]c5cnc(-c6cncnc6)cc45)cc23)c1` [compound 374]: the values for the EC50 in experiment [1], in experiment [2] and in experiment [4] were 19 nM, 9840 nM and over 10000 nM, respectively. For the same compound, the Emax in experiment [3] was determined as 49.6%.
With `Fc1ccccc1-c1nccc2[nH]c(-c3n[nH]c4cnc(-c5cncc(CN6CCCC6)c5)cc34)cc12` [compound 338], the EC50 in experiment [1] turned out to be 5 nM; in experiment [2], 222 nM; in experiment [3], 10 nM; in experiment [4], 1980 nM. The Emax in experiment [3] was found to be 69.4%.
Consider `CN(C)Cc1cncc(-c2ccc3[nH]nc(-c4cc5cccnc5[nH]4)c3n2)c1` [compound 443], for which the EC50 in experiment [1] is 7 nM; in experiment [2] it was 566 nM; in experiment [4], over 10000 nM. The Emax in experiment [3] was 37%.
Regarding `CC(C)(C)C(=O)Nc1cncc(-c2ccc3[nH]nc(-c4nc5c(-c6ccc(F)cc6)cncc5[nH]4)c3c2)c1` [compound 161], the EC50 in experiment [1] turned out to be 17 nM; in experiment [2], 105 nM; in experiment [3] it was 100 nM; in experiment [4], 4 nM. The Emax in experiment [3] is 128%.
The corresponding values for `O=C(Nc1cncc(-c2ccc3[nH]nc(-c4nc5c(-c6ccccc6F)ccnc5[nH]4)c3n2)c1)C(F)(F)F` [compound 176] are 6 nM, 149 nM, 10 nM, over 10000 nM and 74%.
In the case of `CC(C)CC(=O)Nc1cncc(-c2ccc3[nH]nc(-c4nc5c(-c6cc(F)cc(NCCN(C)C)c6)cncc5[nH]4)c3c2)c1` [compound 281], the results for the EC50 in experiment [1], in experiment [2] and in experiment [4] were 6 nM, 25 nM and 22 nM, respectively. Also, the Emax in experiment [3] came to 82%.
On to `COc1cccc(-c2nccc3[nH]c(-c4n[nH]c5ccc(-c6cccnc6)nc45)nc23)c1` [compound 295], for which the EC50 in experiment [1] was 2 nM; in experiment [2], 96 nM; in experiment [3] it was 30 nM; in experiment [4], 377 nM. Also, the Emax in experiment [3] amounted to 50.6%.
Taken in the same sequence, the figures for `CC(C)(C)CC(=O)Nc1cncc(-c2cc3c(-c4cc5cnccc5[nH]4)n[nH]c3cn2)c1` [compound 425] were 3 nM, 56 nM, 10 nM, 1890 nM and 58.8%.
Taken in the same sequence, the figures for `CC(C)Nc1cncc(-c2ccc3[nH]nc(-c4nc5c(-c6cc(F)cc(NCCN(C)C)c6)nccc5[nH]4)c3c2)c1` [compound 282] were 4 nM, 50 nM, 30 nM, 202 nM and 85.1%.
Taken in the same sequence, the figures for `CC(C)C(=O)Nc1cncc(-c2cnc3[nH]nc(-c4cc5c(N6CCN(C)CC6)nccc5[nH]4)c3c2)c1` [compound 476] were 7 nM, 800 nM, 30 nM, over 10000 nM and 61.6%.
Take `Cc1cn(-c2ccnc3[nH]c(-c4n[nH]c5ccc(-c6cncc(NC(=O)C7CCC7)c6)nc45)nc23)cn1` [compound 228]: the EC50 in experiment [1] is 4 nM; in experiment [2] it was 106 nM; in experiment [3], 300 nM; in experiment [4], over 10000 nM. Moreover, the Emax in experiment [3] is 69.1%.
As for `c1cncc(-c2ccnc3[nH]c(-c4n[nH]c5ncc(-c6cncc(CN7CCCCC7)c6)cc45)cc23)c1` [compound 372], the EC50 was 2 nM in experiment [1], 69 nM in experiment [2] and over 10000 nM in experiment [4]. Also, the Emax in experiment [3] was 43.9%.
Regarding `Fc1cccc(-c2cncc3[nH]c(-c4n[nH]c5ncc(-c6cncc(CN7CCCCC7)c6)cc45)cc23)c1` [compound 313], the EC50 in experiment [1] turned out to be 18 nM; in experiment [2] it was 295 nM; in experiment [4], 3120 nM. The Emax in experiment [3] turned out to be 108%.
For the compound `c1cc(-c2cncc3[nH]c(-c4n[nH]c5ccc(-c6cncc(CN7CCCCC7)c6)nc45)cc23)ccn1` [compound 403], the EC50 in experiment [1] was 6 nM; in experiment [2], 306 nM; in experiment [3] it was 10 nM; in experiment [4], over 10000 nM. The Emax in experiment [3] came to 97.1%.
The corresponding values for `CN1CCN(c2nccc3[nH]c(-c4n[nH]c5cnc(-c6cncc(NC(=O)C(C)(C)C)c6)cc45)cc23)CC1` [compound 478] are 9 nM, 137 nM, 10 nM, 1880 nM and 88.2%.
With `Fc1cccc(-c2nccc3[nH]c(-c4n[nH]c5ccc(-c6cccnc6)nc45)cc23)c1` [compound 301], the values for the EC50 in experiment [1], in experiment [2] and in experiment [4] were 8 nM, 105 nM and 1350 nM, respectively. Also, in experiment [3], the Emax was determined as 44.8%.
Turning to `Fc1ccc(-c2cncc3[nH]c(-c4n[nH]c5ncc(-c6cncnc6)cc45)cc23)cc1` [compound 319], the EC50 in experiment [1] amounted to 6 nM; in experiment [2], 817 nM; in experiment [4] it was 594 nM. In addition, in experiment [3], the Emax worked out at 23.8%.
Regarding `Cn1cc(-c2ccc3[nH]nc(-c4cc5c(-c6cccnc6)cncc5[nH]4)c3c2)cn1` [compound 375], the EC50 in experiment [1] is 6 nM; in experiment [2], 100 nM; in experiment [4] it was 250 nM. In addition, the Emax in experiment [3] was found to be 65.2%.
On to `O=C(Nc1cncc(-c2cc3c(-c4cc5cnccc5[nH]4)n[nH]c3cn2)c1)C1CC1` [compound 426], for which the EC50 is 5 nM in experiment [1], 88 nM in experiment [2], 30 nM in experiment [3] and 1540 nM in experiment [4]. Further, in experiment [3], the Emax amounted to 58.5%.
`CN1CCN(c2cncc3[nH]c(-c4n[nH]c5ccc(-c6cncc(NC(=O)CC(C)(C)C)c6)cc45)cc23)CC1` [compound 479]: the values for the EC50 in experiment [1], in experiment [2] and in experiment [4] were 4 nM, 145 nM and 3480 nM, respectively. For the same compound, the Emax in experiment [3] came out at 30.8%.
